Experimental data taken from paper PMC11043318, “Quantification of biochemical PSA dynamics after radioligand therapy with [^177Lu]Lu-PSMA-I&T using a population pharmacokinetic/pharmacodynamic model” (EJNMMI Physics, 2024).
“And” between values parts separate entries of the source, which are not always exact repeats. Equal entries are not always repeated.

Experiments:
[1] = Population pharmacokinetic model from post-administration SPECT/CT data; format: in vivo, human
[2] = tested on: serum prostate-specific antigen (PSA); assay: Population PKPD model of PSA dynamics after therapy; format: in vivo, human; details: estimate (RSE%)
From the text: Data from patients treated in our hospital with [^177Lu]Lu-PSMA-I&T between September 2019 and January 2023 were collected for population PK model development. This retrospective data collection was approved by the Institutional Review Board of the Netherlands Cancer Institute (IRBd21288). Baseline patient characteristics were collected, such as age, body weight, height and serum creatinine clearance. In addition, individual PSA concentrations were collected and used as input for the PD model. As pre-treatment PSA value, only the last observation prior to [^177Lu]Lu-PSMA-I&T treatment (< 6 weeks) was included in the analysis, to avoid taking into account PSA changes due to other previous treatments. For the same reason, PSA observations after the last [^177Lu]Lu-PSMA-I&T administration were collected up to start of a new treatment.
A sequential modelling approach was used for PKPD model development, where an additional compartment was considered to describe PSA concentrations over time. Baseline PSA concentrations were estimated as a typical population value with an estimated IIV on this population baseline value. […] For Edrug, a linear function, an Emax function and a sigmoid Emax model were evaluated (see Eqs. 9–11, respectively).9 Edrug=kD∗Ctumor 10 Edrug=EMAX∗Ctumor/EC50+Ctumor 11 Edrug=EMAX∗Ctumorγ/EC50γ+Ctumorγ where kD is a drug-induced effect, Ctumor is the estimated concentration in the tumor compartment (taking into account radioactive decay), EMAX is the maximal drug induced effect of [^177Lu]Lu-PSMA-I&T on PSA, EC50 is the [^177Lu]Lu-PSMA-I&T concentration at which half of the maximum drug-induced effect on PSA occurs and γ is a hill coefficient (that was both estimated and fixed during model development).
Therefore, a delay of the PD effect after administration of [^177Lu]Lu-PSMA-I&T (Edelayed) was evaluated using an effect compartment with a linear drug effect (Eq. 8) on the PSA compartment. This delayed effect was assessed both solely as well as additional to the direct effect (Edrug). […]

[3] = tested on: serum prostate-specific antigen (PSA); assay: Tumor exposure (AUC) threshold for PSA response, linear regression; format: in vivo, human; details: Bayesian estimated tumor AUC of first two cycles
From the text: As an exploratory analysis, the final population PKPD model was used to assess a potential tumor exposure threshold required to achieve treatment response. The individually (Bayesian) estimated area under the curve (AUC) based on the first two treatment cycles was related to the change in PSA (%) for each patient. Since PSA is a continuous response measure and there is no defined moment to determine response, two endpoints for response were considered: nadir PSA and the last measured PSA value after the first two treatment cycles. A linear regression was performed to assess the relationship and was subsequently used to define tumor AUC thresholds required to achieve treatment response (≥ 50% decrease in PSA). Formal statistical testing was not possible, since individual (Bayesian) estimates of tumor exposure cannot be considered independent variables.

[4] = cited from earlier work
From the text: Though differences are small, these might be caused by different treatment intervals (two-week instead of six-week interval) for most patients.

[5] = cited from earlier work; remark: listed apart in the source
From the text: Comparison of rate constants for drug transfer between different compartments is hampered by absolute radioactivity amounts being relatively small in tumors compared to organs (due to volume differences between these compartments). […] Though differences are small, these might be caused by different treatment intervals (two-week instead of six-week interval) for most patients.

[6] = fraction of tumor uptake rate in cycle 1, estimate (RSE%)
[7] = population PK model, covariate exponent, estimate (RSE%)
[8] = population PK model, estimate (RSE%)

With `O=C([O-])CC[C@H](NC(=O)N[C@@H](CCCCNC(=O)CCCCCCC(=O)NCCCC[C@@H](NC(=O)[C@@H](Cc1ccccc1)NC(=O)[C@@H](Cc1ccc(O)c(I)c1)NC(=O)CC[C@H](C(=O)[O-])N1CCN(CC(=O)[O-])CCN(CC(=O)[O-])CCN(CC(=O)[O-])CC1)C(=O)[O-])C(=O)[O-])C(=O)[O-].[177Lu+3].[H+].[H+].[H+].[H+].[H+]` [[^177Lu]Lu-PSMA-I&T] the “Tumor uptake rate in cycle 2 compared to cycle 1” value ([1]; all 76 patients) was 73% and 73.1%, the “Tumor uptake rate in cycle 3 compared to cycle 1” value ([1]; all 76 patients) was 50% and 49.8% and the “Tumor uptake rate in cycle 4–7 compared to cycle 1” value ([1]; all 76 patients) was 44% and 43.6%. For the same compound, the “Salivary gland uptake in cycle three compared to cycle one” value ([1]; cycle effect tested on k12) was 98.1%, the “Salivary gland uptake in cycle two compared to cycle one” value ([1]; cycle effect tested on k12) was 84.6% and the “Estimated half-life, tumors” value ([1]; decay-corrected data) was roughly 46 h. The “Cycle 2 on k14 (fractional change)” value [1, 6] was 0.731 (8.1%), the “Cycle 3 on k14 (fractional change)” value [1, 6] was 0.498 (11.3%) and the “Cycle 4–7 on k14 (fractional change)” value [1, 6] was 0.436 (11.6%). The “Increase of tumor uptake rate with a two-times higher tumor volume” value ([1]; from power covariate 1.08 on k14) was 2.11 fold, the “Tumor uptake rate in cycle 2 compared to cycle 1, excluding '4 × 6' patients” value ([1]; only '2 × 2 – repeated after twelve weeks' scheme) was 82.9% and the “k10 (renal excretion rate constant from central compartment)” value ([1]; population PK model, 76 mCRPC patients, ~7.4 GBq per cycle, SPECT/CT, estimate (RSE%)) was 0.253 (5.2%) h^−1. The “k12 (uptake rate central to salivary glands)” value ([1]; population PK model, 76 mCRPC patients, estimate (RSE%)) was 0.0105 (9.2%) h^−1, the Renal clearance ([1]; population PK model, mCRPC patients) was 2.61 L/h and the “Tumor volume on k12 (power covariate function)” value [1, 7] was 0.0910 (30.0%). For the same compound, the “Tumor volume on k14 (power covariate function)” value [1, 7] was 1.08 (7.5%), the “k13 (uptake rate central to kidneys)” value [1, 8] was 0.0321 (6.9%) h^−1 and the “k14 (uptake rate central to tumors)” value [1, 8] was 0.00967 (9.9%) h^−1. The “k15 (central to remaining tissue)” value [1, 8] was 0.275 (6.8%) h^−1, the “k21 (salivary glands to central)” value [1, 8] was 0.0629 (6.3%) h^−1 and the “k31 (kidneys to central)” value [1, 8] was 0.0625 (5.4%) h^−1. For the same compound, the “k41 (tumors to central)” value [1, 8] was 0.0150 (3.4%) h^−1, the “k51 (remaining tissue to central)” value [1, 8] was 0.0247 (6.5%) h^−1 and the “Estimated half-life, organs-at-risk” value ([1]; salivary glands and kidneys, decay-corrected data) was “approximately 11 h”. The “BMAX compartment 2 (maximum binding capacity, salivary glands)” value ([1]; saturable uptake into salivary glands, estimate (RSE%)) was 134 (15.5%) MBq, the “Rate constant effect compartment (ke0)” value ([2]; first-order delay to effect compartment) was 0.00128 (13.1%) h^−1 and the “Delayed drug-induced effect (kD, delay)” value ([2]; linear effect from effect compartment on PSA) was 0.0000328 (17.4%) L·day^−1·MBq^−1. The “Direct drug-induced effect (kD, direct)” value ([2]; linear effect of tumor concentration on PSA elimination) was 0.00335 (40.1%) L·day^−1·GBq^−1, the “Threshold tumor AUC for ≥ 50% decrease in PSA, last measured PSA after first two cycles” value [3] was 1188 MBq·h/mL and the “Threshold tumor AUC for ≥ 50% decrease in PSA, nadir PSA as outcome” value [3] was 709.5 MBq·h/mL. The “Average tumor absorbed dose, fourth cycle relative to first cycle” value [4] was 68%, the “Average tumor absorbed dose, second cycle relative to first cycle” value [4] was 94% and the “Average tumor absorbed dose, third cycle relative to first cycle” value [4] was 77%. The “Average tumor absorbed dose, first cycle” value ([4]; n = 5–15 patients per cycle) was 3.5 Gy/GBq, the “Average tumor absorbed dose, fourth cycle” value ([4]; n = 5–15 patients per cycle) was 2.4 Gy/GBq and the “Average tumor absorbed dose, second cycle” value ([4]; n = 5–15 patients per cycle) was 3.3 Gy/GBq. The “Average tumor absorbed dose, third cycle” value ([4]; n = 5–15 patients per cycle) was 2.7 Gy/GBq.

In the case of `O=C(O)CC[C@H](NC(=O)N[C@@H](CCCCNC(=O)[C@H](Cc1ccc2ccccc2c1)NC(=O)[C@H]1CC[C@H](CNC(=O)CN2CCN(CC(=O)O)CCN(CC(=O)O)CCN(CC(=O)O)CC2)CC1)C(=O)O)C(=O)O` [[^177Lu]Lu-PSMA-617, metal not drawn], the “Initial volume of distribution” value [5] is listed as 22 L, the Reported clearance [5] is listed as 2.04 L/h and the Excretion rate ([5]; population PK model) is listed as 0.288 h⁻¹.
